Test results taken from US20180030500A1, “ENRICHMENT AND SELECTIVE CULTURE OF MYCOBACTERIA” (priority 2015, published 2018).
Read-outs that look alike come from different tables or passages of the source.

How the values were obtained:
[1] = system: Fungi/yeasts; details: 8 strains, 7 days
[2] = system: Mycobacteria; details: 20 strains, 7 days
[3] = system: Gram-positive bacteria; details: 10 strains, 7 days
[4] = system: Enterobacteria; details: 7 strains, 7 days
[5] = system: Pseudomonas aeruginosa; details: 50 strains, 7 days
[6] = selective agent 5 mg/l in medium L
[7] = selective agent 10 mg/l in medium L
[8] = selective agent 20 mg/l in medium L
[9] = selective agent 400 mg/l in medium L
[10] = selective agent 800 mg/l in medium L
[11] = selective agent 1600 mg/l in medium L
[12] = selective agent 0.125 mg/l in medium L
[13] = selective agent 0.25 mg/l in medium L
[14] = selective agent 0.5 mg/l in medium L
[15] = selective agent 16 mg/l in medium L
[16] = selective agent 32 mg/l in medium L
[17] = selective agent 64 mg/l in medium L
[18] = selective agent 2.5 mg/l in medium L
[19] = selective agent 5.0 mg/l in medium L
[20] = selective agent 128 mg/l in medium L

Q: With `C[C@@H]1[C@H](O)[C@@H](C)/C=C/C=C/C=C/C=C/C=C/C=C/C=C/[C@H](O[C@@H]2O[C@H](C)[C@@H](O)[C@H](N)[C@@H]2O)C[C@@H]2O[C@](O)(C[C@@H](O)C[C@@H](O)[C@H](O)CC[C@@H](O)C[C@@H](O)CC(=O)O[C@H]1C)C[C@H](O)[C@H]2C(=O)O` [amphotericin B] as the compound, how does the “Number of strains having shown growth” value [1, 6] read?
A: 6

Q: What about the “Percentage of strains having shown growth” value (from here on “Percentage”) [1, 6] of the same compound?
A: (75%)

Q: And the “Number of strains having shown growth” value [1, 7]?
A: 4

Q: And the “Percentage” value [1, 7]?
A: (50%)

Q: And the “Number of strains having shown growth” value [1, 8]?
A: 3

Q: And the “Percentage” value [1, 8]?
A: (37.5%)

Q: What about the “Number of strains having shown growth” value [2, 6] of the same compound?
A: 20

Q: What about the “Percentage” value [2, 6] of the same compound?
A: (100%)

Q: And the “Number of strains having shown growth” value [2, 7]?
A: 20

Q: What about the “Percentage” value [2, 7] of the same compound?
A: (100%)

Q: And the “Number of strains having shown growth” value [2, 8]?
A: 20

Q: What about the “Percentage” value [2, 8] of the same compound?
A: (100%)

Q: Which “Number of strains having shown growth” value [3, 9] does the source give for `C[C@@H]1O[C@@H]1P(=O)(O)O` [fosfomycin] here?
A: 0

Q: And the “Number of strains having shown growth” value [3, 10]?
A: 0

Q: And the “Number of strains having shown growth” value [3, 11]?
A: 0

Q: What about the “Number of strains having shown growth” value [4, 9] of the same compound?
A: 3

Q: What about the “Percentage” value [4, 9] of the same compound?
A: (43%)

Q: And the “Number of strains having shown growth” value [4, 10]?
A: 2

Q: What about the “Percentage” value [4, 10] of the same compound?
A: (29%)

Q: What about the “Number of strains having shown growth” value [4, 11] of the same compound?
A: 2

Q: And the “Percentage” value [4, 11]?
A: (29%)

Q: What about the “Number of strains having shown growth” value [2, 9] of the same compound?
A: 20

Q: And the “Percentage” value [2, 9]?
A: (100%)

Q: And the “Number of strains having shown growth” value [2, 10]?
A: 20

Q: And the “Percentage” value [2, 10]?
A: (100%)

Q: What about the “Number of strains having shown growth” value [2, 11] of the same compound?
A: 20

Q: What about the “Percentage” value [2, 11] of the same compound?
A: (100%)

Q: What about the “Number of strains having shown growth” value [5, 9] of the same compound?
A: 15

Q: What about the “Percentage” value [5, 9] of the same compound?
A: (30%)

Q: What about the “Number of strains having shown growth” value [5, 10] of the same compound?
A: 8

Q: What about the “Percentage” value [5, 10] of the same compound?
A: (16%)

Q: What about the “Number of strains having shown growth” value [5, 11] of the same compound?
A: 6

Q: What about the “Percentage” value [5, 11] of the same compound?
A: (12%)

Q: `CN(C)c1ccc(C(=C2C=CC(=[N+](C)C)C=C2)c2ccccc2)cc1` [malachite green] was tested. Which “Number of strains having shown growth” value [3, 12] did it give?
A: 10

Q: What about the “Percentage” value [3, 12] of the same compound?
A: (100%)

Q: What about the “Number of strains having shown growth” value [3, 13] of the same compound?
A: 10

Q: What about the “Percentage” value [3, 13] of the same compound?
A: (100%)

Q: And the “Number of strains having shown growth” value [3, 14]?
A: 9

Q: And the “Percentage” value [3, 14]?
A: (90%)

Q: What about the “Number of strains having shown growth” value [4, 12] of the same compound?
A: 7

Q: And the “Percentage” value [4, 12]?
A: (100%)

Q: What about the “Number of strains having shown growth” value [4, 13] of the same compound?
A: 7

Q: What about the “Percentage” value [4, 13] of the same compound?
A: (100%)

Q: What about the “Number of strains having shown growth” value [4, 14] of the same compound?
A: 7

Q: And the “Percentage” value [4, 14]?
A: (100%)

Q: And the “Number of strains having shown growth” value [2, 12]?
A: 16

Q: And the “Percentage” value [2, 12]?
A: (80%)

Q: And the “Number of strains having shown growth” value [2, 13]?
A: 20

Q: And the “Percentage” value [2, 13]?
A: (100%)

Q: And the “Number of strains having shown growth” value [2, 14]?
A: 20

Q: What about the “Percentage” value [2, 14] of the same compound?
A: (100%)

Q: What about the “Number of strains having shown growth” value [5, 12] of the same compound?
A: 50

Q: What about the “Percentage” value [5, 12] of the same compound?
A: (100%)

Q: What about the “Number of strains having shown growth” value [5, 13] of the same compound?
A: 50

Q: And the “Percentage” value [5, 13]?
A: (100%)

Q: And the “Number of strains having shown growth” value [5, 14]?
A: 50

Q: And the “Percentage” value [5, 14]?
A: (100%)

Q: How did the “Number of strains having shown growth” value [3, 15] turn out when `CCn1cc(C(=O)O)c(=O)c2ccc(C)nc21` [nalidixic acid] was run?
A: 9

Q: What about the “Percentage” value [3, 15] of the same compound?
A: (90%)

Q: And the “Number of strains having shown growth” value [3, 16]?
A: 8

Q: And the “Percentage” value [3, 16]?
A: (80%)

Q: What about the “Number of strains having shown growth” value [3, 17] of the same compound?
A: 7

Q: And the “Percentage” value [3, 17]?
A: (70%)

Q: What about the “Number of strains having shown growth” value [4, 15] of the same compound?
A: 4

Q: What about the “Percentage” value [4, 15] of the same compound?
A: (57%)

Q: What about the “Number of strains having shown growth” value [4, 16] of the same compound?
A: 0

Q: And the “Number of strains having shown growth” value [4, 17]?
A: 0

Q: And the “Number of strains having shown growth” value [2, 15]?
A: 20

Q: What about the “Percentage” value [2, 15] of the same compound?
A: (100%)

Q: What about the “Number of strains having shown growth” value [2, 16] of the same compound?
A: 20

Q: What about the “Percentage” value [2, 16] of the same compound?
A: (100%)

Q: And the “Number of strains having shown growth” value [2, 17]?
A: 20

Q: What about the “Percentage” value [2, 17] of the same compound?
A: (100%)

Q: What about the “Number of strains having shown growth” value [5, 15] of the same compound?
A: 50

Q: And the “Percentage” value [5, 15]?
A: (100%)

Q: And the “Number of strains having shown growth” value [5, 16]?
A: 43

Q: What about the “Percentage” value [5, 16] of the same compound?
A: (86%)

Q: And the “Number of strains having shown growth” value [5, 17]?
A: 35

Q: What about the “Percentage” value [5, 17] of the same compound?
A: (70%)

Q: For `CN[C@H](CC(C)C)C(=O)N[C@H]1C(=O)N[C@@H](CC(N)=O)C(=O)N[C@H]2C(=O)N[C@H]3C(=O)N[C@H](C(=O)N[C@H](C(=O)O)c4cc(O)cc(O)c4-c4cc3ccc4O)[C@H](O)c3ccc(c(Cl)c3)Oc3cc2cc(c3O[C@@H]2O[C@H](CO)[C@@H](O)[C@H](O)[C@H]2O[C@H]2C[C@](C)(N)[C@H](O)[C@H](C)O2)Oc2ccc(cc2Cl)[C@H]1O` [vancomycin], which “Number of strains having shown growth” value [3, 18] is on record?
A: 0

Q: And the “Number of strains having shown growth” value [3, 19]?
A: 0

Q: What about the “Number of strains having shown growth” value [3, 7] of the same compound?
A: 0

Q: And the “Number of strains having shown growth” value [4, 18]?
A: 7

Q: What about the “Percentage” value [4, 18] of the same compound?
A: (100%)

Q: What about the “Number of strains having shown growth” value [4, 19] of the same compound?
A: 7

Q: And the “Percentage” value [4, 19]?
A: (100%)

Q: What about the “Number of strains having shown growth” value [4, 7] of the same compound?
A: 7

Q: What about the “Percentage” value [4, 7] of the same compound?
A: (100%)

Q: What about the “Number of strains having shown growth” value [2, 18] of the same compound?
A: 19

Q: What about the “Percentage” value [2, 18] of the same compound?
A: (95%)

Q: And the “Number of strains having shown growth” value [2, 6]?
A: 19

Q: And the “Percentage” value [2, 6]?
A: (95%)

Q: And the “Number of strains having shown growth” value [2, 7]?
A: 19

Q: What about the “Percentage” value [2, 7] of the same compound?
A: (95%)

Q: And the “Number of strains having shown growth” value [5, 18]?
A: 50

Q: And the “Percentage” value [5, 18]?
A: (100%)

Q: What about the “Number of strains having shown growth” value [5, 19] of the same compound?
A: 50

Q: And the “Percentage” value [5, 19]?
A: (100%)

Q: And the “Number of strains having shown growth” value [5, 7]?
A: 50

Q: And the “Percentage” value [5, 7]?
A: (100%)

Q: colistin methanesulfonate was tested. Which “Number of strains having shown growth” value [3, 16] did it give?
A: 7

Q: And the “Percentage” value [3, 16]?
A: (70%)

Q: And the “Number of strains having shown growth” value [3, 17]?
A: 6

Q: What about the “Percentage” value [3, 17] of the same compound?
A: (60%)

Q: What about the “Number of strains having shown growth” value [3, 20] of the same compound?
A: 5

Q: And the “Percentage” value [3, 20]?
A: (50%)

Q: And the “Number of strains having shown growth” value [4, 16]?
A: 3

Q: And the “Percentage” value [4, 16]?
A: (43%)

Q: And the “Number of strains having shown growth” value [4, 17]?
A: 3

Q: What about the “Percentage” value [4, 17] of the same compound?
A: (43%)

Q: And the “Number of strains having shown growth” value [4, 20]?
A: 3

Q: And the “Percentage” value [4, 20]?
A: (43%)

Q: What about the “Number of strains having shown growth” value [2, 16] of the same compound?
A: 20

Q: And the “Percentage” value [2, 16]?
A: (100%)

Q: And the “Number of strains having shown growth” value [2, 17]?
A: 20

Q: And the “Percentage” value [2, 17]?
A: (100%)

Q: And the “Number of strains having shown growth” value [2, 20]?
A: 20

Q: What about the “Percentage” value [2, 20] of the same compound?
A: (100%)

Q: What about the “Number of strains having shown growth” value [5, 16] of the same compound?
A: 5

Q: And the “Percentage” value [5, 16]?
A: (10%)

Q: And the “Number of strains having shown growth” value [5, 17]?
A: 5

Q: What about the “Percentage” value [5, 17] of the same compound?
A: (10%)

Q: What about the “Number of strains having shown growth” value [5, 20] of the same compound?
A: 5

Q: And the “Percentage” value [5, 20]?
A: (10%)
